This is an account of results in patent US20230293517A1, “ANTAGONIST COMPOUNDS” (AdoRx Therapeutics Limited, priority 2020, published 2023).

One may read the pIC50 as the IC50 on a negative log10 scale, so that one unit is a factor of ten. Usually pKi stands for the Ki on a negative log10 scale, so that one unit is a factor of ten.

pIC50, pKi: −log10 of the molar value.

The subject of assay [1] is immature monocyte-derived dendritic cells (MoDC). In words: MoDC pCREB assay. Type of assay: cell-based, human. The conditions noted are these: Homo sapiens, Dendritic cell; pCREB in immature MoDC, 1 μM NECA, rolipram. Here is the method: Monocytes are isolated from human whole blood using CD14 microbeads (Miltenyi Biotec 130-050-201) and differentiated to immature monocyte-derived dendritic cells (MoDC) by culture for 5 days in Mo-DC Differentiation Medium (Miltenyi Biotec 130-094-812). MoDCs are seeded into fresh medium into U bottomed 96 well culture plates and pre-incubated at 37° C. with serial dilutions of A2A/B antagonists for 15 min. At the same time the cells are co-incubated with the phosphodiesterase inhibitor rolipram (final concentration of 20 µM) to amplify the subsequent pCREB response. Adenosine receptor agonist NECA is then added at 1 μM final concentration, leading to an increase in CREB phosphorylation. Following a 45 min incubation at 37° C., the cells are fixed, permeabilized and stained with directly conjugated fluorescent antibodies to phospho-CREB (Alexa Fluor 488), CD209 (PerCP-Cy5.5) and CD86 (APC). Samples are analysed by FACS to measure fluorescence in corresponding channels, and also forward and Side scatter. The population of CD209+/CD86− low cells corresponding to immature dendritic cells is gated for analysis of pCREB levels.
Approximately 5% of the analysed cells are positive for detection of pCREB in the absence of agonist stimulation, representing the background signalling of all pathways upstream of CREB. Following NECA stimulation this is increased to ˜80% pCREB+ve, and this increase is essentially fully reversible by A2B or dual A2A/B antagonists.
IC50 is represented as the point of inflection of a sigmoidal curve

Assay [2] deals with human Adenosine A2a receptor (Homo sapiens (Human), UniProt P29274). The assay is described as follows: Adenosine receptor TR-FRET binding assay (A2a). Conditions: inhibition of binding of 100 nM CA200645, CHO cell membranes. In a few lines: (§1)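 Terbium-labelled human receptors in CHO cell membranes were incubated 2 h at room temperature with test compounds and fluorescent XAC tracer CA200645 (30 nM for A2b; 100 nM for A1, A2a, A3). TR-FRET 665/620 nm ratio gave specific binding; Ki derived from IC50 by Cheng–Prusoff.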

Assay [3] has as its target human Adenosine A1 receptor (Homo sapiens (Human), UniProt P30542). In words: Adenosine receptor TR-FRET binding assay (A1). Conditions: inhibition of binding of 100 nM CA200645, CHO cell membranes. In a few lines:
as §1

Assay [4] deals with human Adenosine A2b receptor (Homo sapiens (Human), UniProt P29275). In words: Adenosine receptor TR-FRET binding assay (A2b). The conditions noted are these: TR-FRET, inhibition of binding of 30 nM CA200645, CHO cell membranes. In a few lines:
as §1

Assay [5] concerns the target human Adenosine A3 receptor (Homo sapiens (Human), UniProt P0DMS8). The assay is described as follows: Adenosine receptor TR-FRET binding assay (A3). Conditions: inhibition of binding of 100 nM CA200645, CHO cell membranes. The method, boiled down: as §1
The next assay deals with human PBMCs. The assay is described as follows: CD3/CD28 stimulated IL-2 release NECA reversal assay in human PBMCs. The format is cell-based. Conditions: PBMC, 1 uM NECA, 24 hours, IL-2 in culture supernatant. In a few lines: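 PBMCs from citrated healthy-donor blood plated at 50,000 cells/well on 1 ug/ml CD3 antibody with 1 ug/ml CD28 antibody, 1 uM NECA and 0.003-10 μM antagonist (final), 24 h at 37° C. Supernatant IL-2 measured by MSD immunoassay; % inhibition set against no-NECA control wells as 100%.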

Assay [6] has as its system CD8+T cells in human whole blood. In words: Measurement of pCREB in CD8+T cells in human whole blood. The format is cell-based. Conditions: 3 μM NECA, rolipram. In a few lines:
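Heparinised human whole blood pre-incubated 20 min at 37 °C with serially diluted A2a antagonists plus rolipram, then stimulated 60 min with 3 μM NECA (final). After fixation and red-cell lysis, white cells were permeabilized and stained for phospho-CREB and CD8; pCREB in CD8+ T cells measured by flow cytometry.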

human Adenosine A3 receptor, sequence (P0DMS8 whole entry): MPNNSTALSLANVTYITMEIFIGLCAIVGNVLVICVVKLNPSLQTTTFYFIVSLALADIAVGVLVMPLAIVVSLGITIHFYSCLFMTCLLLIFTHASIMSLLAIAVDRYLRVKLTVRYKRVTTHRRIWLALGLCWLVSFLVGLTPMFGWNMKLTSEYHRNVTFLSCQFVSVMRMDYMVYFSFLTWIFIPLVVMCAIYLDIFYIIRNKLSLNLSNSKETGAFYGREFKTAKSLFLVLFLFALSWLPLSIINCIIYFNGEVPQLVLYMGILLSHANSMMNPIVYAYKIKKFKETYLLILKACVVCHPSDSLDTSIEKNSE
human Adenosine A2b receptor, sequence (P29275 whole entry): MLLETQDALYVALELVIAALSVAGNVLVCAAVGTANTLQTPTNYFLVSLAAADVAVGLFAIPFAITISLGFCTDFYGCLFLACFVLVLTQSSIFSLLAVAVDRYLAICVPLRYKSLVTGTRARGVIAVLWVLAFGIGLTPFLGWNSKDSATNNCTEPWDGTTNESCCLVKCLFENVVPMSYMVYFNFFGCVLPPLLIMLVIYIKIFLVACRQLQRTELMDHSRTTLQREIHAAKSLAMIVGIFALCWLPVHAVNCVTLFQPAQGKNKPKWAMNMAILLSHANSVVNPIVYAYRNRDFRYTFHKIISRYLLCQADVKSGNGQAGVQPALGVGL
human Adenosine A2a receptor, sequence (P29274 whole entry): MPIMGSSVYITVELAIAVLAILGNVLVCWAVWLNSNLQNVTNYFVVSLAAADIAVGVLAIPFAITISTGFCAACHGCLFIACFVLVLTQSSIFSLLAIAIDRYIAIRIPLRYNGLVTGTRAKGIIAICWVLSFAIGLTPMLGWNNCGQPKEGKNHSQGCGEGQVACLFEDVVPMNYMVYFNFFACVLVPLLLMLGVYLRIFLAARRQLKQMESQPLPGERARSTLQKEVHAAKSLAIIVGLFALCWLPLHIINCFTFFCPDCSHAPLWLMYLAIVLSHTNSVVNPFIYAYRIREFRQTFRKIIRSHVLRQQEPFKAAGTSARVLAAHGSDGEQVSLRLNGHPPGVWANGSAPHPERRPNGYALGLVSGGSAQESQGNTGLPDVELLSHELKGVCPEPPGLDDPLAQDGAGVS
human Adenosine A1 receptor, sequence (P30542 whole entry): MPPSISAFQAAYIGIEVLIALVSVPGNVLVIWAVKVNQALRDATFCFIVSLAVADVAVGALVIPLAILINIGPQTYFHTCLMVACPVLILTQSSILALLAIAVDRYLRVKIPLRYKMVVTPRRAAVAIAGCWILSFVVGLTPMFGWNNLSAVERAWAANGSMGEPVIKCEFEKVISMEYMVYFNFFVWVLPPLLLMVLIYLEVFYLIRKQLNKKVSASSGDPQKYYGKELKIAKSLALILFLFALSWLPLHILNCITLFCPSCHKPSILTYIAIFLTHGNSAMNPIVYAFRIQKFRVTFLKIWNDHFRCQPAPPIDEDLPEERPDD

In assay [1], `[2H]C([2H])([2H])c1cc(-c2sc(NC(=O)N3CC4(COC4)C3)nc2-c2cccc(C#N)c2)cc(C([2H])([2H])[2H])n1` [Example 6.104, N-[5-[2,6-Bis(trideuteriomethyl)-4-pyridyl]-4-(3-cyanophenyl)thiazol-2-yl]-2-oxa-6-azaspiro[3.3]heptane-6-carboxamide] had a pIC50 of 7.92. The pKi in assay [2] was 9.70; in assay [3] it was 7.51; in assay [4] it was 9.00; in assay [5] it was 6.25.

`Cc1cc(-c2sc(NC(=O)N3CC4(COC4)C3)nc2-c2cccc(C#N)c2)cc(C2COC2)n1` [Example 16.4] had a negative logarithm of the IC50 (pIC50) in assay [1] of 7.44. Further, the pKi is 9.89 in assay [2], 7.92 in assay [3], 8.48 in assay [4] and 5.77 in assay [5].

As for `Cc1cc(-c2sc(NC(=O)N3CC4(COC4)C3)nc2-c2cccc(C#N)c2)c(F)c(C)n1` [Example 6.105, N-[4-(3-Cyanophenyl)-5-(3-fluoro-2,6-dimethyl-4-pyridyl)thiazol-2-yl]-2-oxa-6-azaspiro[3.3]heptane-6-carboxamide], the pIC50 in assay [1] is 8.40. For the same molecule, the negative-log Ki (pKi) in assay [2] is 8.90; in assay [3] it was 7.15; in assay [4], 8.89; in assay [5], 6.43.

The molecule `Cc1cc(-c2sc(NC(=O)N3CCC4(CNCCO4)C3)nc2-c2cccc(C#N)c2)cc(C(F)F)n1` (stereo not drawn) [Example 6.108, N-[4-(3-Cyanophenyl)-5-[2-(difluoromethyl)-6-methyl-4-pyridyl]thiazol-2-yl]-6-oxa-2,9-diazaspiro[4.5]decane-2-carboxamide] had a pIC50 in assay [1] of 7.21. Also, the pKi in assay [2] was 9.23; in assay [3], 7.47; in assay [4], 9.05; in assay [5] it was 6.84.

`Cc1cc(-c2sc(NC(=O)N3CCC(C)(C#N)CC3)nc2-c2cccc(C#N)c2)cc(C(C)(C)O)n1` [Example 12, 4-Cyano-N-[4-(3-cyanophenyl)-5-[2-(1-hydroxy-1-methyl-ethyl)-6-methyl-4-pyridyl]thiazol-2-yl]-4-methyl-piperidine-1-carboxamide] showed a pIC50 in assay [1] of 7.14. The pKi in assay [2] is 9.80; in assay [3] it was 8.22; in assay [4], 8.51; in assay [5], 6.03.

`Cc1cc(-c2sc(NC(=O)N3CC4(COC4)C3)nc2-c2cccc(C#N)c2)cc(Cl)n1` [Example 6.100, N-[5-(2-Chloro-6-methyl-4-pyridyl)-4-(3-cyanophenyl)thiazol-2-yl]-2-oxa-6-azaspiro[3.3]heptane-6-carboxamide] gave a pIC50 in assay [1] of 8.00. Further, the pKi in assay [2] is 9.80; in assay [3] it was 7.60; in assay [4], 9.22; in assay [5] it was 6.26.

As for `Cc1cc(-c2sc(NC(=O)N3CCC(N4CCNC4=O)CC3)nc2-c2cccc(C#N)c2)cc(C)n1` [Example 6.30, N-[4-(3-Cyanophenyl)-5-(2,6-dimethyl-4-pyridyl)thiazol-2-yl]-4-(2-oxoimidazolidin-1-yl)piperidine-1-carboxamide], the pIC50 in the assay on human PBMCs is 8.16; in assay [6], 6.28. Moreover, the pKi is 9.09 in assay [2], 7.01 in assay [3], 8.70 in assay [4] and 6.73 in assay [5].

For the molecule `Cc1cc(-c2sc(NC(=O)N3CCN[C@H](CO)C3)nc2-c2cccc(C#N)c2)cc(Cl)n1` [Example 5.2, (3S)-N-[5-(2-Chloro-6-methyl-4-pyridyl)-4-(3-cyanophenyl)thiazol-2-yl]-3-(hydroxymethyl)piperazine-1-carboxamide], the pIC50 with human PBMCs is 7.69; in assay [6] it was 5.93. Besides, the pKi in assay [2] was 9.08; in assay [3] it was 7.40; in assay [4] it was 9.05; in assay [5], 7.15.

In the case of `Cc1cc(-c2sc(NC(=O)N3CCC4(CC3)CNC(=O)N4)nc2-c2cccc(C#N)c2)cc(C)n1` [Example 6.11, N-[4-(3-Cyanophenyl)-5-(2,6-dimethyl-4-pyridyl)thiazol-2-yl]-2-oxo-1,3,8-triazaspiro[4.5]decane-8-carboxamide], the pIC50 in the assay with human PBMCs was 8.28; in assay [6], 7.30. Besides, the pKi in assay [2] is 9.41; in assay [3] it was 7.38; in assay [4], 8.59; in assay [5] it was 6.50.

Turning to `Cc1cc(-c2sc(NC(=O)N3CCN4C(=O)CCC4C3)nc2-c2cccc(C#N)c2)cc(C)n1` (stereo not drawn) [Example 6.18, N-[4-(3-Cyanophenyl)-5-(2,6-dimethyl-4-pyridyl)thiazol-2-yl]-6-oxo-1,3,4,7,8,8a-hexahydropyrrolo[1,2-a]pyrazine-2-carboxamide], the pIC50 in the assay on human PBMCs is 8.30; in assay [6], 7.40. Also, the pKi in assay [2] is 9.48; in assay [3], 7.15; in assay [4], 8.21; in assay [5], 6.48.

For the molecule `Cc1cc(-c2sc(NC(=O)N3CCNC(=O)C3)nc2-c2cccc(C#N)c2)cc(C)n1` [Example 4.13, N-[4-(3-Cyanophenyl)-5-(2,6-dimethyl-4-pyridyl)thiazol-2-yl]-3-oxo-piperazine-1-carboxamide], the values for the pIC50 (with human PBMCs; in assay [6]) were 7.85 and 6.26, respectively. The pKi in assay [2] is 8.82; in assay [3], 7.30; in assay [4] it was 8.77; in assay [5] it was 6.71.

With `Cc1cc(-c2sc(NC(=O)N3CCN(C)C(=O)C3)nc2-c2cccc(C#N)c2)cc(C)n1` [Example 4.15, N-[4-(3-Cyanophenyl)-5-(2,6-dimethyl-4-pyridyl)thiazol-2-yl]-4-methyl-3-oxo-piperazine-1-carboxamide], the pIC50 with human PBMCs was 7.99; in assay [6], 6.19. The pKi in assay [2] was 8.64; in assay [3] it was 7.04; in assay [4], 8.85; in assay [5] it was 6.47.

In the case of `Cc1cc(-c2sc(NC(=O)N3CC(CO)C3)nc2-c2cccc(C#N)c2)cc(C)n1` [Example 4.25, N-[4-(3-Cyanophenyl)-5-(2,6-dimethyl-4-pyridyl)thiazol-2-yl]-3-(hydroxymethyl)azetidine-1-carboxamide], the pIC50 in the assay on human PBMCs is 8.96; in assay [6] it was 7.30. Further, the pKi was 9.92 in assay [2], 7.85 in assay [3], 8.74 in assay [4] and 6.92 in assay [5].

As to `Cc1cc(-c2sc(NC(=O)N3CCNCC3)nc2-c2cccc(C#N)c2)cc(Cl)n1` [Example 3.1], the pIC50 in the assay on human PBMCs was 7.89; in assay [6], 5.75. The pKi in assay [2] is 8.51; in assay [3] it was 7.03; in assay [4] it was 8.18; in assay [5], 6.57.

Turning to `Cc1cc(-c2sc(NC(=O)N3CCC(C#N)(C(C)(C)O)CC3)nc2-c2cccc(C#N)c2)cc(C)n1` [Example 6.41, 4-Cyano-N-[4-(3-cyanophenyl)-5-(2,6-dimethyl-4-pyridyl)thiazol-2-yl]-4-(1-hydroxy-1-methyl-ethyl)piperidine-1-carboxamide], the figures for the pIC50 (in the assay on human PBMCs; in assay [6]) were 8.57 and 6.92, respectively. The pKi in assay [2] is 9.74; in assay [3], 6.95; in assay [4] it was 8.89; in assay [5], 6.63.

Consider `Cc1cc(-c2sc(NC(=O)N3CC[C@H](C(C)(C)O)C3)nc2-c2cccc(C#N)c2)cc(C)n1` [Example 6.48, (3S)-N-[4-(3-Cyanophenyl)-5-(2,6-dimethyl-4-pyridyl)thiazol-2-yl]-3-(1-hydroxy-1-methyl-ethyl)pyrrolidine-1-carboxamide], for which the pIC50 was 8.43 in the assay on human PBMCs and 6.85 in assay [6]. Moreover, the pKi in assay [2] was 8.95; in assay [3], 7.02; in assay [4], 8.77; in assay [5], 6.61.
